Values joined by “and” are separate entries in the source; they are usually repeats but may differ in a detail not shown here. Identical values can stand only once. Inconclusive results and toxic doses are left out. Rule as the data show it: active = T/C of 150% or more; inactive = T/C below 125%.
System: L1210 leukemia ip in BDF1 mice, survival T/C
Experiment: NCI In Vivo Anticancer Drug Screen. Data for tumor model L1210 Leukemia (intraperitoneal) in B6D2F1 (BDF1) mice
Conditions: endpoint: mean survival time, higher = longer survival
Method in brief: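 Read-out is survival time, reported as the treated-group measurement over the vehicle-control measurement.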

[1] = dose: 100.0 mg/kg/injection, schedule: Q01DX009 (ip), vehicle: Klucel (hydroxypropylcellulose) (HPC)
[2] = dose: 100.0 mg/kg/injection, schedule: Q04DX003 (ip), vehicle: Klucel (hydroxypropylcellulose) (HPC)
[3] = dose: 200.0 mg/kg/injection, schedule: Q01DX009 (ip), vehicle: Klucel (hydroxypropylcellulose) (HPC)
[4] = dose: 200.0 mg/kg/injection, schedule: Q04DX003 (ip), vehicle: Klucel (hydroxypropylcellulose) (HPC)
[5] = dose: 400.0 mg/kg/injection, schedule: Q01DX009 (ip), vehicle: Klucel (hydroxypropylcellulose) (HPC)
[6] = dose: 400.0 mg/kg/injection, schedule: Q04DX003 (ip), vehicle: Klucel (hydroxypropylcellulose) (HPC)
[7] = dose: 100.0 mg/kg/injection, schedule: Q04DX002 (ip), vehicle: saline
[8] = dose: 200.0 mg/kg/injection, schedule: Q04DX002 (ip), vehicle: saline
[9] = dose: 400.0 mg/kg/injection, schedule: Q04DX002 (ip), vehicle: saline
[10] = dose: 100.0 mg/kg/injection, schedule: Q04DX002 (ip), vehicle: Klucel (hydroxypropylcellulose) (HPC)
[11] = dose: 200.0 mg/kg/injection, schedule: Q04DX002 (ip), vehicle: Klucel (hydroxypropylcellulose) (HPC)
[12] = dose: 50.0 mg/kg/injection, schedule: Q01DX001 (ip), vehicle: saline
[13] = dose: 100.0 mg/kg/injection, schedule: Q01DX001 (ip), vehicle: saline
[14] = dose: 50.0 mg/kg/injection, schedule: Q01DX001 (ip), vehicle: carboxymethylcellulose (CMC)
[15] = dose: 100.0 mg/kg/injection, schedule: Q01DX001 (ip), vehicle: carboxymethylcellulose (CMC)
[16] = dose: 200.0 mg/kg/injection, schedule: Q01DX001 (ip), vehicle: carboxymethylcellulose (CMC)

Measured: T/C

O=C(NCCCCc1ccccc1)c1ccccc1
inactive: [1] 102 % of control | [2] 95 % of control | [3] 109 % of control | [4] 105 % of control | [5] 106 % of control | [6] 95 % of control

Cc1ccc(S(=O)(=O)OCCC2=CCC3CC2C3(C)C)cc1 (stereo not given)
inactive: [7] 103 % of control | [8] 95 % of control | [9] 95 % of control

Cn1ncc2c1C1(C)CCC2C1(C)C (stereo not given)
inactive: dose: 50.0 mg/kg/injection, schedule: Q01DX009 (ip), vehicle: Klucel (hydroxypropylcellulose) (HPC) 89 % of control | [2] 102 % of control | [3] 92 % of control | [4] 107 % of control

O=C1OC(c2ccc([N+](=O)[O-])cc2)=N/C1=C\c1ccc(Cl)c(Cl)c1
inactive: [10] 108 % of control | [11] 97 % of control | dose: 400.0 mg/kg/injection, schedule: Q04DX002 (ip), vehicle: Klucel (hydroxypropylcellulose) (HPC) 101 % of control

CCCCOC(=O)Nc1ccccc1
inactive: dose: 100.0 mg/kg/injection, schedule: Q04DX003 (ip), vehicle: gum acacia 101 % of control | dose: 200.0 mg/kg/injection, schedule: Q04DX003 (ip), vehicle: gum acacia 108 % of control | dose: 400.0 mg/kg/injection, schedule: Q04DX003 (ip), vehicle: gum acacia 109 % of control

C/C(=N/N=C(N)N)c1ccc(Cl)cc1
inactive: dose: 15.0 mg/kg/injection, schedule: Q01DX Z (ip), vehicle: carboxymethylcellulose (CMC) 96 % of control | dose: 15.0 mg/kg/injection, schedule: Q01DX Z (oral), vehicle: carboxymethylcellulose (CMC) 108 % of control | dose: 30.0 mg/kg/injection, schedule: Q01DX Z (ip), vehicle: carboxymethylcellulose (CMC) 95 % of control | dose: 30.0 mg/kg/injection, schedule: Q01DX Z (oral), vehicle: carboxymethylcellulose (CMC) 104 % of control | dose: 60.0 mg/kg/injection, schedule: Q01DX Z (oral), vehicle: carboxymethylcellulose (CMC) 98 % of control

Oc1ccc(O)c(Cl)c1
inactive: [12] 107 % of control | dose: 50.0 mg/kg/injection, schedule: Q04DX002 (ip), vehicle: saline 106 % of control | dose: 100.0 mg/kg/injection, schedule: Q01DX001 (ip), vehicle: Klucel (hydroxypropylcellulose) (HPC) 94 % of control | [13] 107 % of control | [7] 92 % of control | dose: 200.0 mg/kg/injection, schedule: Q01DX001 (ip), vehicle: Klucel (hydroxypropylcellulose) (HPC) 94 % of control

Nc1nc(Cl)c(C=O)c(Cl)n1
inactive: dose: 25.0 mg/kg/injection, schedule: Q01DX001 (ip), vehicle: carboxymethylcellulose (CMC) 97 % of control | [14] 97 % of control | [15] 94 % of control | [16] 103 % of control

CC(C)[As](=O)(O)O
inactive: dose: 25.0 mg/kg/injection, schedule: Q01DX009 (ip), vehicle: saline 97 % of control | dose: 50.0 mg/kg/injection, schedule: Q01DX009 (ip), vehicle: saline 90 % of control | dose: 100.0 mg/kg/injection, schedule: Q01DX009 (ip), vehicle: saline 104 % of control and 106 % of control

NC(=S)N/N=C/c1c(Cl)n(C(=O)c2ccccc2)c2ccccc12
inactive: dose: 50.0 mg/kg/injection, schedule: Q04DX002 (ip), vehicle: Klucel (hydroxypropylcellulose) (HPC) 98 % of control | [10] 87 % of control | [11] 87 % of control

CC(C)(CC(=O)O)NC(=O)c1ccccc1
inactive: dose: 100.0 mg/kg/injection, schedule: Q01DX001 (ip), vehicle: other 95 % of control | dose: 200.0 mg/kg/injection, schedule: Q01DX001 (ip), vehicle: other 106 % of control | dose: 400.0 mg/kg/injection, schedule: Q01DX001 (ip), vehicle: other 103 % of control

CCC1([N+](=O)[O-])COP(N)(=O)OC1 (stereo not given)
inactive: dose: 5.0 mg/kg/injection, schedule: Q01DX001 (ip), vehicle: saline 105 % of control | dose: 10.0 mg/kg/injection, schedule: Q01DX001 (ip), vehicle: saline 107 % of control | dose: 20.0 mg/kg/injection, schedule: Q01DX001 (ip), vehicle: saline 124 % of control | dose: 40.0 mg/kg/injection, schedule: Q01DX001 (ip), vehicle: saline 100 % of control | dose: 80.0 mg/kg/injection, schedule: Q01DX001 (ip), vehicle: saline 96 % of control

CN(C)N=Nc1ccc(S(C)(=O)=O)cc1
inactive: dose: 25.0 mg/kg/injection, schedule: Q04DX002 (ip), vehicle: saline with Tween-80 105 % of control | dose: 50.0 mg/kg/injection, schedule: Q04DX002 (ip), vehicle: saline with Tween-80 102 % of control | dose: 100.0 mg/kg/injection, schedule: Q04DX002 (ip), vehicle: saline with Tween-80 102 % of control and 106 % of control | dose: 200.0 mg/kg/injection, schedule: Q04DX002 (ip), vehicle: saline with Tween-80 116 % of control | dose: 400.0 mg/kg/injection, schedule: Q04DX002 (ip), vehicle: saline with Tween-80 97 % of control

Sc1ccccc1-n1c(-c2ccccc2)ccc1-c1ccccc1
inactive: [12] 96 % of control | [13] 93 % of control | dose: 200.0 mg/kg/injection, schedule: Q01DX001 (ip), vehicle: saline 98 % of control | dose: 400.0 mg/kg/injection, schedule: Q01DX001 (ip), vehicle: saline 87 % of control

O=C(Cc1cccc([N+](=O)[O-])c1)Nc1ccccc1
inactive: [1] 91 % of control | [2] 96 % of control | [3] 98 % of control | [4] 96 % of control | [5] 93 % of control | [6] 102 % of control

NC1CC(=O)NC1=O (stereo not given)
inactive: [7] 93 % of control | [8] 100 % of control | [9] 100 % of control

CC1(CO)C2CCC(O)C1C2 (stereo not given)
inactive: dose: 75.0 mg/kg/injection, schedule: Q01DX009 (ip), vehicle: saline 103 % of control | dose: 75.0 mg/kg/injection, schedule: Q04DX003 (ip), vehicle: saline 94 % of control | dose: 150.0 mg/kg/injection, schedule: Q01DX009 (ip), vehicle: saline 97 % of control | dose: 150.0 mg/kg/injection, schedule: Q04DX003 (ip), vehicle: saline 95 % of control | dose: 300.0 mg/kg/injection, schedule: Q01DX009 (ip), vehicle: saline 100 % of control | dose: 300.0 mg/kg/injection, schedule: Q04DX003 (ip), vehicle: saline 102 % of control

Cc1ccc(NC(=O)NCCCCl)cc1
inactive: [14] 98 % of control | [15] 110 % of control | [16] 98 % of control | dose: 400.0 mg/kg/injection, schedule: Q01DX001 (ip), vehicle: carboxymethylcellulose (CMC) 106 % of control

CN(C)c1ccc(C2=CC3CCCC(C2)N3C)cc1 (stereo not given)
inactive: dose: 12.5 mg/kg/injection, schedule: Q04DX003 (ip), vehicle: saline 100 % of control | dose: 25.0 mg/kg/injection, schedule: Q04DX003 (ip), vehicle: saline 97 % of control

O=S(=O)(Nc1ccc(C(F)(F)F)cc1)c1ccc(C(F)(F)F)cc1
inactive: [2] 95 % of control | [4] 92 % of control
